From article PMC5936891, “A focused library synthesis and cytotoxicity of quinones derived from the natural product bolinaquinone” (Royal Society Open Science, 2018)

Columns and labels:
[1] = tested on: U87 (glioblastoma); assay: MTT in vitro growth inhibition assay, U87; type: cell-based; conditions: for inhibition at 25 µM: 25 µM of drug, 72 h, read-out: Percentage of Cell Growth Inhibition U87; for GI50: 72 h drug exposure
Source text: (§1) With the desired bolinaquinone analogues 12–43 in hand, we examined their cytotoxicity against a panel of 11 tumour cell lines: HT29 (colon carcinoma), U87 and SJ-G2 (glioblastoma), MCF-7 (breast carcinoma), A2780 (ovarian carcinoma), H460 (lung carcinoma), A431 (skin carcinoma), Du145 (prostate carcinoma), BE2-C (neuroblastoma), MIA (pancreatic carcinoma), SMA (spontaneous murine astrocytoma) and a normal breast cell line (MCF10A). The inclusion of the MCF-10A cell line allowed a determination of a crude measure of relative toxicity while noting that the ultimate arbiter of toxicity requires in vivo evaluation. All analogues were initially screened at a 25 µM drug concentration.
(§2) Stock solutions were prepared as follows and stored at −20°C: drugs were stored as 40 mM solutions in DMSO. All cell lines were cultured in a humidified atmosphere 5% CO2 at 37°C. The cancer cell lines were maintained in Dulbecco's modified Eagle's medium (DMEM) (Trace Biosciences, Australia) supplemented with 10% fetal bovine serum, 10 mM sodium bicarbonate, penicillin (100 IU ml^−1), streptomycin (100 µg ml^−1) and glutamine (4 mM). The non-cancer MCF10A cell line was cultured in DMEM:F12 (1 : 1) cell culture media, 5% heat-inactivated horse serum, supplemented with penicillin (50 IU ml^−1), streptomycin (50 µg ml^−1), 20 mM Hepes, L-glutamine (2 mM), epidermal growth factor (20 ng ml^−1), hydrocortisone (500 ng ml^−1), cholera toxin (100 ng ml^−1) and insulin (10 ug ml^−1).
(§3) Cells in logarithmic growth were transferred to 96-well plates. Cytotoxicity was determined by plating cells in duplicate in 100 µl medium at a density of 2500–4000 cells per well. On day 0 (24 h after plating), when the cells were in logarithmic growth, 100 μl of medium with or without the test agent was added to each well. After 72 h, drug exposure growth inhibitory effects were evaluated using the MTT (3-[4,5-dimethylthiazol-2-yl]-2,5-diphenyl-tetrazolium bromide) assay and the absorbance read at 540 nm. Percentage growth inhibition was determined at a fixed drug concentration of 25 µM. A value of 100% is indicative of complete cell growth inhibition. Those analogues showing appreciable percentage growth inhibition underwent further dose–response analysis allowing for the calculation of a GI50 value. This value is the drug concentration at which cell growth is 50% inhibited based on the difference between the optical density values on day 0 and those at the end of drug exposure.

[2] = tested on: BE2-C (neuroblastoma); assay: MTT in vitro growth inhibition assay, BE2-C; type: cell-based; conditions: Homo sapiens, BE(2)-C, 72 h; for inhibition at 25 µM: 25 µM of drug, read-out: Percentage of Cell Growth Inhibition BE2-C; for GI50: 72 h drug exposure
Source text: as §1, §2, §3

[3] = tested on: A431 (skin carcinoma); assay: MTT in vitro growth inhibition assay, A431; type: cell-based; conditions: Homo sapiens; for inhibition at 25 µM: A-431, 25 µM of drug, 72 h, read-out: Percentage of Cell Growth Inhibition A431; for GI50: A-431, 72 h, 72 h drug exposure
Source text: as §1, §2, §3

[4] = tested on: HT29 (colon carcinoma); assay: MTT in vitro growth inhibition assay, HT29; type: cell-based; conditions: Homo sapiens; for inhibition at 25 µM: HT-29, 25 µM of drug, 72 h, read-out: Percentage of Cell Growth Inhibition HT29; for GI50: HT-29, 72 h drug exposure
Source text: as §1, §2, §3

[5] = tested on: SJ-G2 (glioblastoma); assay: MTT in vitro growth inhibition assay, SJ-G2; type: cell-based; conditions: for inhibition at 25 µM: 25 µM of drug, 72 h, read-out: Percentage of Cell Growth Inhibition SJ-G2; for GI50: 72 h drug exposure
Source text: as §1, §2, §3

[6] = tested on: H460 (lung carcinoma); assay: MTT in vitro growth inhibition assay, H460; type: cell-based; conditions: Homo sapiens; for inhibition at 25 µM: NCI-H460, 25 µM of drug, 72 h, read-out: Percentage of Cell Growth Inhibition H460; for GI50: NCI-H460, 72 h drug exposure
Source text: as §1, §2, §3

[7] = tested on: MCF10A (normal breast cell line); assay: MTT in vitro growth inhibition assay, MCF10A; type: cell-based; conditions: Homo sapiens, MCF-10A; for inhibition at 25 µM: 25 µM of drug, 72 h, read-out: Percentage of Cell Growth Inhibition MCF10A; for GI50: normal breast cell line, 72 h drug exposure
Source text: as §1, §2, §3

[8] = tested on: MIA (pancreatic carcinoma); assay: MTT in vitro growth inhibition assay, MIA; type: cell-based; conditions: for inhibition at 25 µM: 25 µM of drug, 72 h, read-out: Percentage of Cell Growth Inhibition MIA; for GI50: 72 h drug exposure
Source text: as §1, §2, §3

[9] = tested on: A2780 (ovarian carcinoma); assay: MTT in vitro growth inhibition assay, A2780; type: cell-based; conditions: Homo sapiens; for inhibition at 25 µM: 25 µM of drug, 72 h, read-out: Percentage of Cell Growth Inhibition A2780; for GI50: 72 h drug exposure
Source text: as §1, §2, §3

[10] = tested on: MCF-7 (breast carcinoma); assay: MTT in vitro growth inhibition assay, MCF-7; type: cell-based; conditions: Homo sapiens; for inhibition at 25 µM: MCF7, 25 µM of drug, 72 h, read-out: Percentage of Cell Growth Inhibition MCF-7; for GI50: MCF7, 72 h drug exposure
Source text: as §1, §2, §3

[11] = tested on: Du145 (prostate carcinoma); assay: MTT in vitro growth inhibition assay, Du145; type: cell-based; conditions: Homo sapiens, DU-145, 25 µM of drug, 72 h, read-out: Percentage of Cell Growth Inhibition Du145
Source text: as §1, §2, §3

[12] = tested on: SMA (spontaneous murine astrocytoma); assay: MTT in vitro growth inhibition assay, SMA; type: cell-based; conditions: Mus musculus; for inhibition at 25 µM: 25 µM of drug, 72 h, read-out: Percentage of Cell Growth Inhibition SMA; for GI50: 72 h drug exposure
Source text: as §1, §2, §3

Row | SMILES | inhibition at 25 µM [1] | GI50 [1] | inhibition at 25 µM [2] | GI50 [2] | inhibition at 25 µM [3] | GI50 [3] | inhibition at 25 µM [4] | inhibition at 25 µM [5] | GI50 [5] | inhibition at 25 µM [6] | inhibition at 25 µM [7] | inhibition at 25 µM [8] | GI50 [8] | inhibition at 25 µM [9] | GI50 [9] | inhibition at 25 µM [10] | GI50 [10] | inhibition at 25 µM [11] | inhibition at 25 µM [12] | GI50 [12] | also measured
1 | COC1=CC(=O)C(OC)=C(c2ccccc2)C1=O [compound 12, 2,5-Dimethoxy-3-phenylcyclohexa-2,5-diene-1,4-dione] | 12 ± 2% | 47 ± 2.2 µM | > 100% | 10 ± 1.1 µM | 10 ± 3% | 40 ± 4.5 µM | 24 ± 1% | 27 ± 6% | 27 ± 0.9 µM | < 10% | < 10% | 31 ± 5% | 29 ± 1.5 µM | 75 ± 7% | 18 ± 0.7 µM | 40 ± 3% | 22 ± 3.4 µM | < 10% | 49 ± 8% | 29 ± 3.2 µM | GI50 [4]: 42 ± 6.2 µM; melting point: 122 to 124 °C; GI50 [6]: > 50 µM
2 | COC1=CC(=O)C(OC)=C(c2ccc(C)cc2)C1=O [compound 13, 2,5-Dimethoxy-3-p-tolylcyclohexa-2,5-diene-1,4-dione] | 13 ± 4% | > 50 µM | > 100% | 12 ± 1.2 µM | < 10% | > 50 µM | 10 ± 4% | 41 ± 18% | 33 ± 1.9 µM | 13 ± 3% | 10 ± 5% | < 10% | > 50 µM | 72 ± 10% | 20 ± 1.2 µM | 23 ± 3% | 37 ± 1 µM | 13 ± 2% | 45 ± 9% | 33 ± 2.3 µM | GI50 [4]: > 50 µM; GI50 [6]: > 50 µM; GI50 [7]: 50 ± 9.2 µM
3 | COC1=CC(=O)C(OC)=C(c2ccc(O)cc2)C1=O [compound 16, 3-(4-Hydroxyphenyl)-2,5-dimethoxycyclohexa-2,5-diene-1,4-dione] | < 10% |  | < 10% | ~11 µM | > 100% |  | 11 ± 3% | 21 ± 9% | 43 ± 1.5 µM | < 10% |  | < 10% |  | < 10% | 35 ± 1.9 µM | 15% |  | 21 ± 6% |  | 50 ± 3.2 µM | 
4 | COC1=CC(=O)C(OC)=C(c2ccc(CO)cc2)C1=O [compound 17, 3-(4-(Hydroxymethyl)phenyl)-2,5-dimethoxycyclohexa-2,5-diene-1,4-diene] | < 10% | 45 ± 2.3 µM | > 100% | ~11 µM | < 10% |  | < 10% | 22 ± 4% | 33 ± 1.3 µM | < 10% | < 10% | < 10% | 37 ± 1 µM | 53 ± 5% | 22 ± 0.9 µM | < 10% | 36 ± 2 µM | < 10% | 21 ± 10% | 37 ± 0.7 µM | melting point: 116 to 118 °C; GI50 [7]: 49 µM
5 | COC1=CC(=O)C(OC)=C(c2ccc(OC)cc2OC)C1=O [compound 20, 2,5-Dimethoxy-3-(2,4-dimethoxyphenyl)cyclohexa-2,5-diene-1,4-dione] | 17 ± 3% |  | > 100% | ~11 µM | 11 ± 4% |  | 15 ± 2% | 32 ± 6% | 31 ± 1.5 µM | 10 ± 5% | 14 ± 6% | < 10% |  | 48 ± 9% | 25 ± 3 µM | 20 ± 3% | 34 ± 3 µM | < 10% | 35 ± 8% | 33 ± 3.5 µM | GI50 [7]: 38 ± 5 µM
6 | COC1=CC(=O)C(OC)=C(c2cccc3ccccc23)C1=O [compound 25, 2,5-dimethoxy-3-(naphthalene-1-yl)cyclohexa-2,5-diene-1,4-dione] | 10 ± 2% |  | > 100% | 8 ± 0.5 µM | 8 ± 3% | 47 ± 6.7 µM | 16 ± 3% | 54 ± 19% | 22 ± 1.5 µM | < 10% | < 10% | 18 ± 4% | 42 ± 3.5 µM | 66 ± 13% | 21 ± 1.3 µM | 28 ± 2% | 29 ± 2 µM | 10 ± 5% | 77 ± 3% | 20 ± 1.3 µM | GI50 [4]: 43 ± 5.5 µM; melting point: 134 to 137 °C
